The AC50 is the concentration giving half of the maximal activity seen. By IC50 is commonly meant the point on the concentration scale where inhibition reaches its midpoint.

The target in test [1] is Protein disulfide-isomerase (Homo sapiens, UniProt P07237). Put plainly: inhibition of PDI-driven insulin aggregation – biochemical, turbidity, absorbance, cherry-picked samples, dose response (AID 602350). Type of test: functional.
The subject of another test is CHO. Description: CHO cell viability loss, potency – luminescence, cytotoxicity control for TLR9-MyD88 binding inhibitor project, dose response (AID 588339).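 Note: CHO cells stably coexpressing TLR9 and MyD88 fusions from primary screen; compound exposure lasted 48 hours before viability readout.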 The test is classed as functional, cell-based, hamster. Particulars: Cricetulus griseus.
The target of a further test is Beta Lactamase (Pseudomonas aeruginosa, UniProt Q932Y6). Description: BLA reporter interference, concentration series – BLA reporter cells, FRET fluorescence, artefact control for TLR9-MyD88 binding inhibitor project, dose response (AID 588341).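 Note: cell based assay in CHO-K1 cells stably expressing beta-lactamase.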 The test is classed as cell-based.
The nature of test [2]: reduction of Shn3 3'UTR-driven luciferase in osteoblasts – cell-based, Clone20 osteoblasts, firefly luciferase, cherry-picked, dose response (AID 624132).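 Note: firefly luciferase luminescence from reporter carrying the Shn3 3'UTR in osteoblasts.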 The test is classed as functional.
Test [3] is described as follows: loss of viability in HepG2 cells – cell-based, CellTiter-Glo, cherry-picked, cytotoxicity control for Shn3 inhibitor project, dose response (AID 624134). The test is classed as functional.
Test [4] in a line: non-specific 3'UTR reporter inhibition in Clone20-Shn3RL – cell-based, Renilla luciferase, cherry-picked, counter-screen for Shn3 inhibitor project, dose response (AID 624133). The test is classed as functional. (The purpose of a counterscreen is to sort out artefacts and off-target activity.)
A short description of test [5]: suppression of NO production in INS-1E cells – cell-based, Griess absorbance, dry powder, set 3, dose response (AID 488870). Type of test: functional. Particulars: Rattus norvegicus.
Test [6] has as its system INS1. Description: suppression of NO production in INS-1E cells – cell-based, Griess absorbance, dry powder, set 2, dose response (AID 488868). The following applies: Rattus norvegicus. Type of test: functional.
Test [7] deals with INS1. Description: cellular ATP toxicity in rat beta cells – cell-based, CellTiter-Glo luminescence, INS-1E, dry powder, cytotoxicity control for beta-cell cytokine protection project, dose response (AID 488864). The test is classed as functional. Background: Cellular ATP, detected with luciferase, serves as a proxy for viable cell number.
A short description of test [8]: A549 cell cytotoxicity, dose response, cytotoxicity control, plate reader, cherry-pick, antagonist series (AID 743412). The test is classed as functional, cell-based.
A short description of test [9]: toxicity toward HepG2 liver cells – cell-based, plate reader, cherry-pick, antagonist series, cytotoxicity control, dose response (AID 743416). The test is classed as functional.
A short description of test [10]: blockers of bursicon-stimulated LGR2 cAMP reporter – cell-based, HEK293, CRE-luciferase reporter, cherry pick, set 2, dose response (AID 743343).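 Note: transfected cells were stimulated with diluted bursicon conditioned medium after compound addition.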 Type of test: functional.
A short description of test [11]: blockade of melanocortin 4 receptor signaling – cell-based, plate reader, cherry pick, counter-screen for LGR2 antagonist project, dose response (AID 743444).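 Note: transfected HEK 293 cells stimulated with alpha-MSH peptide; potency of inhibitors of the alpha-MSH evoked signal.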 The test is classed as functional.
Test [12] in a line: viability loss in HEK293 cells – cell-based, plate reader, cherry-picked samples, cytotoxicity control, dose response (AID 743446). The test is classed as functional.

Activity calls are given as the source filed them.

Sequence of Beta Lactamase (Q932Y6 whole entry): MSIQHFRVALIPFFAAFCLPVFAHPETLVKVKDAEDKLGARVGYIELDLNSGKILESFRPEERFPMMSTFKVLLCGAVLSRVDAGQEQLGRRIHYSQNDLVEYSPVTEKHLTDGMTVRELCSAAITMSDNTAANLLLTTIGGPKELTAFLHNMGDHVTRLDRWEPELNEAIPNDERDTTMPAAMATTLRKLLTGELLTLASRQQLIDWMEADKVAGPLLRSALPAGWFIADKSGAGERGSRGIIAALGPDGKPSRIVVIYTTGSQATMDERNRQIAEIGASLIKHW
Sequence of Protein disulfide-isomerase (P07237 whole entry, the tested form may be a part): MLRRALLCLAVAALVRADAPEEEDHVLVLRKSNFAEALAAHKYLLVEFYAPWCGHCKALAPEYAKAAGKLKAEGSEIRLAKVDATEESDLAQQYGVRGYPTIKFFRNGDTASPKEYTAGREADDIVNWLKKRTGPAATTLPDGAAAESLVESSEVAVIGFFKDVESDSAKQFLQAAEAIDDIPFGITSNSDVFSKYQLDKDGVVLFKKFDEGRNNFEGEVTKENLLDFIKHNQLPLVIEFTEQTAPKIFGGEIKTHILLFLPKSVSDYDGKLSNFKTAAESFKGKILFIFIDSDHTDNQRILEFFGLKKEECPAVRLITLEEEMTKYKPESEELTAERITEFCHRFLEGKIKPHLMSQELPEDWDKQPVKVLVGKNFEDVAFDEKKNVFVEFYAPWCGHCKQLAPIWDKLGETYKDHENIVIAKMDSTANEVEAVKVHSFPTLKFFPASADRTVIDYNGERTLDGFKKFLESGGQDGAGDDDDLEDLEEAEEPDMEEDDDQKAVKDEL

As for `O=C1NC[C@H](Cc2ccccc2)N(C[C@H]2CCCN2C[C@H](Cc2ccccc2)N2C[C@H](Cc3ccc(O)cc3)N(CCc3ccccc3)C(=O)C2=O)C1=O`, in test [1], the AC50 was 6.5 µM (active).
On to `C=C1C(=O)c2sccc2C(c2ccc(OC)c(OC)c2)C1COC(C)=O` (centres undefined), for which the figures for the IC50 in the test with CHO and on Beta Lactamase were 1.69 µM (active) and 21.4 µM (inactive), respectively. Further, the figures for the AC50 in test [2], in test [3] and in [4] were 0.662 µM (active), 6.99 µM (active) and 3.62 µM (active), respectively.
As for `COc1ccc(S(=O)(=O)N(C)C[C@@H]2Oc3c(NC(=O)c4nc5ccccc5s4)cccc3C(=O)N([C@@H](C)CO)C[C@H]2C)cc1`, the AC50 in [5] is 38.6 µM (active); in the test on INS1 [6], 30.7 µM (active); in the test with INS1 [7] it was 32.7 µM (active); in [8], 15 µM (active); in test [9], 23.7 µM (active); in [10], 9.82 µM (active). Besides, the concentration at half-maximal activity (AC50) is 28.8 µM (active) in [11] and > 52 µM (inactive) in [12].

Source of the values: ChEMBL document CHEMBL1201862, “PubChem BioAssay data set” (2004).
